According to US9636335B2, “Heteroaryl compounds as 5-HT4 receptor ligands” (Suven Life Sciences Ltd, priority 2011, dated 2017):
Counter-ions that a name gives are not always drawn.

Key:
[1] = target: recombinant human 5-HT4 receptor (Homo sapiens (Human), UniProt Q13639); test: Determination of EC50 values for 5-HT4 receptor (CHO cells, pCRE-Luc reporter); assay type: cell-based; settings: CHO cells expressing human 5-HT4 receptor, luciferase activity, 4 hours incubation
Method: A stable CHO cell line expressing recombinant human 5-HT4 receptor and pCRE-Luc reporter system was used for cell-based assay. The assay offers a non-radioactive based approach to determine binding of a compound to GPCRs. In this specific assay, the level of intracellular cyclic AMP which is modulated by activation or inhibition of the receptor is measured. The recombinant cells harbor luciferase reporter gene under the control of cAMP response element.
The above cells were grown in 96 well clear bottom white plates in Hams F12 medium containing 10% fetal bovine serum (FBS). Prior to the addition of compounds or standard agonist, cells were serum starved overnight. Increasing concentrations of test compounds were added in OptiMEM medium to the cells. The incubation was continued at 37° C. in CO2 incubator for 4 hours. Medium was removed and cells were washed with phosphate buffered saline. The cells were lysed and luciferase activity was measured in a Luminometer. Luminescence units were plotted against the compound concentrations using Graphpad software.

[2] = Rodent brain penetration study; settings: male, Wistar, rat, po, 10 mg/kg
Method: Three animals were housed in each cage. Animals were given water and food ad libitum throughout the experiment, and maintained on a 12 hours light/dark cycle.
Brain penetration was determined in discrete manner in rats. […] After acclimatization the rats were grouped according to the weight in each group, 3 animals were kept in individual cage and allowed free access to food and water. At each time point (0.50, 1, and 2 hours) n=3 animals were used.
The compounds of formula (I) was suitably preformulated and administered orally at (free base equivalent) 10 mg/kg. Blood samples were removed via, cardiac puncture by using isoflurane anesthesia the animals were sacrificed to collect brain tissue. […] The concentrations of the NCE compound in plasma and Brain were determined using LC-MS/MS method.
Extent of brain-plasma ratio was calculated (Cb/Cp).

[3] = test system: Male Wister rats; test: Object recognition task model; assay type: in vivo; settings: p.o., rat
Method: The cognition enhancing properties of compounds of this invention were estimated by using this model.
Male Wister rats (230-280 grams) were used as experimental animals. Four animals were housed in each cage. […] Also the rats were habituated to individual arenas for 1 hour in the absence of any objects.
One group of 12 rats received vehicle (1 mL/Kg) orally and another set of animals received compound of the formula (I) either orally or i.p., before one hour of the familiar (T1) and choice trial (T2).
The experiment was carried out in a 50×50×50 cm open field made up of acrylic. In the familiarization phase, (T1), the rats were placed individually in the open field for 3 minutes, in which two identical objects (plastic bottles, 12.5 cm height×5.5 cm diameter) covered in yellow masking tape alone (a1 and a2) were positioned in two adjacent corners, 10 cms from the walls. After 24 hours of the (T1) trial for long-term memory test, the same rats were placed in the same arena as they were placed in T1 trial. Choice phase (T2) rats were allowed to explore the open field for 3 minutes in presence of one familiar object (a3) and one novel object (b) (Amber color glass bottle, 12 cm high and 5 cm in diameter). Familiar objects presented similar textures, colors and sizes. During the T1 and T2 trial, explorations of each object (defined as sniffing, licking, chewing or having moving vibrissae whilst directing the nose towards the object at a distance of less than 1 cm) were recorded separately by stopwatch. […] T1 is the total time spent exploring the familiar objects (a1+a2). T2 is the total time spent exploring the familiar object and novel object (a3+b).

[4] = Rodent pharmacokinetic study; assay type: in vivo, Male Wister rats; settings: plasma
Method: Three to five animals were housed in each cage. […] Animals were fasted over night before oral dosing (p.o) and food pellets were allowed 2 hours post dosing, whereas intravenous dosing food and water were provided as ad libitum. Three rats were dosed with compounds of formula (I) (10 mg/kg) orally and intravenously (05 mg/kg).
At each time point blood was collected through jugular vein and immediately replenish with an equivalent volume of normal saline from freely moving rats. Collected blood was transferred into a labeled eppendr off containing 10 μL of heparin as anticoagulant. Typically blood samples were collected as following time points: Pre dose, 0.08 (only i.v.), 0.25, 0.5, 1, 2, 4, 6, 8, and 24 hours post dose (n=3). Blood was centrifuged at 4000 rpm for 10 minutes. Plasma was prepared and stored frozen at −20° C. until analysis.
Pharmacokinetic parameters Cmax, Tmax, AUCt, T1/2 and Bioavailability were calculated by non-compartmental model using standard non-compartmental model by using WinNonLin 5.0.1 or Phoenix WinNonlin 6.2 version Software package.

[5] = Wistar/Male rat, 5 mg/kg, intravenous (bolus)
[6] = Wistar/Male rat, 10 mg/kg oral vs 5 mg/kg intravenous
[7] = Wistar/Male rat, 10 mg/kg, oral (gavage)
[8] = male, Wistar, rat, po, 10 mg/kg

Sequence of recombinant human 5-HT4 receptor (Q13639 whole entry): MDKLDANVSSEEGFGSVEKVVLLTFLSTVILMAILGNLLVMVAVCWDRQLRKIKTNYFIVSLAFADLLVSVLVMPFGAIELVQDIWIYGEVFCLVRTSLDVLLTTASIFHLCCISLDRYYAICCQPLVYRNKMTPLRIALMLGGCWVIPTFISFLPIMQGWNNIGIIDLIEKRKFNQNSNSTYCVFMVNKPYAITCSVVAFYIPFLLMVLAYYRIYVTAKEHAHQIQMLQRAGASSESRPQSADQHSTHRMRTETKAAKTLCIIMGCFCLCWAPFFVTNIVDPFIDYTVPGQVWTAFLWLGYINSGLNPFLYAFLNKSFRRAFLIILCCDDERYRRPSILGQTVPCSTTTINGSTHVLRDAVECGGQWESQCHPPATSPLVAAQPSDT

Structure (SMILES) | EC50 [1] | Exploration time mean ± S.E.M, Familiar object ([3]; 3 mg/kg) | Exploration time mean ± S.E.M, Novel object ([3]; 3 mg/kg) | Inference ([3]; 3 mg/kg) | AUC(0-t) [4, 5] | Cmax [4, 5] | Tmax [4, 5] | half-life [4, 5] | bioavailability [4, 6] | AUC(0-t) [4, 7] | Cmax [4, 7] | Tmax [4, 7] | half-life [4, 7] | also measured
COCCN1CCC(c2nnc(-c3cc(Cl)c(N)c4c3OCCC4)o2)CC1 [Example 8, 6-Chloro-8-{5-[1-(2-methoxy-ethyl)-piperidin-4-yl]-[1,3,4]oxadiazol-2-yl}-chroman-5-ylamine] | 15.6 nM | 10.45 ± 1.162 s | 17.59 ± 2.95 s | Active | 1320 ± 527 ng·h/mL | 1280 ± 239 ng/mL | 4.8 min | 61.8 ± 8.4 min | 72 ± 22% | 1760 ± 89 ng·h/mL | 918 ± 46 ng/mL | 19.8 ± 8.4 min | 60.6 ± 4.8 min | Kp ([2]; brain homogenate and plasma): 0.56 ± 0.08
CCOC(=O)N1CCC(N2CCC(c3nnc(-c4cc(Cl)c(N)c5c4OCCC5)o3)CC2)CC1 [Example 19, 4-[5-(5-Amino-6-chloro-chroman-8-yl)-[1,3,4]oxadiazol-2-yl]-[1,4′]bipiperidinyl-1′-carboxylic acid ethyl ester] | 6.8 nM |  |  |  | 2370 ± 90 ng·h/mL | 1860 ± 115 ng/mL | 4.8 min | 133 ± 13.8 min | 101 ± 1% | 4814 ± 30 ng·h/mL | 1760 ± 264 ng/mL | 30 min | 88.8 ± 10.8 min | Exploration time mean ± S.E.M, Familiar object ([3]; 10 mg/kg): 7.19 ± 0.65 s; Exploration time mean ± S.E.M, Novel object ([3]; 10 mg/kg): 13.21 ± 2.1 s; Inference ([3]; 10 mg/kg): Active
CC(C)n1nc(-c2nnc(C3CCN(C4CCOCC4)CC3)o2)c2ccccc21 [Example 48, 1-Isopropyl-3-{5-[1-(tetrahydro-pyran-4-yl)-piperidin-4-yl]-[1,3,4]oxadiazol-2-yl}-1H-indazole oxalate salt] |  |  |  |  |  |  |  |  |  |  |  |  |  | Kp ([2]; in vivo): 2.55 ± 0.32
Nc1c(Cl)cc(-c2nnc(C3CCN(CC4CCOCC4)CC3)o2)c2c1CCCO2.O=C(O)C(=O)O [Example 26, 6-Chloro-8-{5-[1-(tetrahydro-pyran-4-ylmethyl)-piperidin-4-yl]-[1,3,4]oxadiazol-2-yl}-chroman-5-ylamine oxalate salt] | 18 nM | 7.12 ± 1.44 s | 14.42 ± 2.22 s | Active |  |  |  |  |  |  |  |  |  | 
Nc1c(Cl)cc(-c2nnc(CC3CCN(C4CCCC4)CC3)o2)c2c1CCCO2.O=C(O)C(=O)O [Example 21, 6-Chloro-8-[5-(1-cyclopentyl-piperidin-4-ylmethyl)-[1,3,4]oxadiazol-2-yl]-chroman-5-ylamine oxalate salt] | 71.2 nM |  |  |  |  |  |  |  |  |  |  |  |  | Kp ([2]; brain homogenate and plasma): 0.62 ± 0.05; AUC(0-t) ([4]; male, Wistar, rat, iv, 5 mg/kg): 876 ± 65 ng·h/mL; Cmax ([4]; male, Wistar, rat, iv, 5 mg/kg): 750 ± 14 ng/mL; Tmax ([4]; male, Wistar, rat, iv, 5 mg/kg): 4.8 min; half-life ([4]; male, Wistar, rat, iv, 5 mg/kg): 107 ± 25.8 min; AUC(0-t) [4, 8]: 1490 ± 72 ng·h/mL; Cmax [4, 8]: 553 ± 53 ng/mL; Tmax [4, 8]: 25.2 ± 7.2 min; bioavailability [4, 8]: 85 ± 4%; half-life [4, 8]: 94.2 ± 6.6 min
Nc1c(Cl)cc(-c2nnc(C3CCN(C4CCC4)CC3)o2)c2c1OCCO2 [Example 16, 6-Chloro-8-[5-(1-cyclobutyl-piperidin-4-yl)-[1,3,4]oxadiazol-2-yl]-2,3-dihydro-benzo[1,4]dioxin-5-ylamine] | 13.3 nM |  |  |  |  |  |  |  |  |  |  |  |  | Exploration time mean ± S.E.M, Familiar object ([3]; 10 mg/kg): 8.03 ± 1.58 s; Exploration time mean ± S.E.M, Novel object ([3]; 10 mg/kg): 13.94 ± 1.76 s; Inference ([3]; 10 mg/kg): Active
CC(C)n1nc(-c2nnc(C3CCN(C4CCC4)CC3)o2)c2ccccc21 [Example 37, 3-[5-(1-Cyclobutyl-piperidin-4-yl)-[1,3,4]oxadiazol-2-yl]-1-isopropyl-1H-indazole] |  |  |  |  |  |  |  |  |  |  |  |  |  | Kp ([2]; in vivo): 5.68 ± 1.74
CC(C)CCN1CCC(c2nnc(-c3cc(Cl)c(N)c4c3OCCC4)o2)CC1 [Example 9, 6-Chloro-8-{5-[1-(3-methyl-butyl)-piperidin-4-yl]-[1,3,4]oxadiazol-2-yl}-chroman-5-ylamine] | 2.4 nM | 11.21 ± 2.18 s | 16.47 ± 1.18 s | Active | 836 ± 374 ng·h/mL | 792 ± 111 ng/mL | 4.8 min | 82.8 ± 39.6 min | 66 ± 21% | 1210 ± 941 ng·h/mL | 412 ± 177 ng/mL | 40.2 ± 14.4 min | 89.4 ± 38.4 min | 
